Paper PMC8284453 (Antimicrobial Agents and Chemotherapy, 2021)
Where two headings read alike, the source gives them in different places.

Columns and labels:
[1] = test system: E. cloacae ECL01 (TEM-72, ACT-1, P99AmpC); test: Broth microdilution MIC; assay type: cell-based; details: modal value, 5 independent determinations
[2] = test system: Enterobacterales expressing class C cephalosporinases
[3] = test system: K. pneumoniae ATCC BAA-1705 (KPC-2); test: 24-h time-kill assay; assay type: cell-based; details: lowest concentration with ≥3-log10 CFU/ml reduction at 24 h
Method: (§1) In vitro antibacterial time-kill assay. […] Time-kill assays were performed in 14 ml glass tubes or deep-well storage plates with a bacterial inoculum in CAMHB of 5 × 10^5 CFU/ml. The tubes/plates were incubated at 37°C with shaking at 200 rpm, and aliquots were drawn at six time points (0, 2, 4, 6, 8, and 24 h) to conduct 0.5 log10 dilutions in CAMHB in 96-well plates that were incubated overnight at 37°C and used to ascertain viable bacterial counts. The lowest quantifiable amount by this method is 2 log10 CFU/ml.

[4] = test system: E. coli ESBL4 (CTX-M-15); test: 24-h time-kill assay; assay type: cell-based
Method: as §1

[5] = test system: E. cloacae ECL01 (TEM-72, ACT-1, P99AmpC); test: 24-h time-kill assay; assay type: cell-based; details: lowest concentration with ≥3-log10 CFU/ml reduction at 24 h
Method: as §1

[6] = test system: K. pneumoniae 752286 (OXA-48); test: 24-h time-kill assay; assay type: cell-based; details: lowest concentration with ≥3-log10 CFU/ml reduction at 24 h
Method: as §1

[7] = test system: K. pneumoniae ATCC BAA-1705 (KPC-2); test: Broth microdilution MIC; assay type: cell-based; details: modal value, 5 independent determinations
[8] = test system: Enterobacterales expressing class A carbapenemases (KPC); test: organism not typed; assay type: cell-based, K. pneumoniae, E. coli, E. cloacae, Klebsiella oxytoca
[9] = test system: isogenic strains of E. coli expressing Ambler class A, B, C, and D enzymes; test: microbe, parasite or virus in culture; assay type: cell-based, Escherichia coli
[10] = test system: Enterobacterales expressing class A ESBLs; test: organism not typed; assay type: cell-based, E. coli, K. pneumoniae; details: 25 isolates; BLI fixed at 4 μg/ml, AMC 2:1
[11] = test system: E. coli ESBL4 (CTX-M-15); test: Broth microdilution MIC; assay type: cell-based; details: modal value, 5 independent determinations
[12] = test system: K. pneumoniae 752286 (OXA-48); test: Broth microdilution MIC; assay type: cell-based; details: modal value, 5 independent determinations
[13] = test system: Enterobacterales expressing class D oxacillinases (OXA-48/48-like); test: organism not typed; assay type: cell-based, E. coli, K. pneumoniae; details: for MIC50 / MIC90: 25 isolates, BLI fixed at 4 μg/ml, AMC 2:1
[14] = 25 isolates, BLI fixed at 4 μg/ml, AMC 2:1

C[C@@H](O)[C@H]1C(=O)N2C(C(=O)O)=C(S[C@H]3CC[S@@+]([O-])C3)S[C@H]12 [Sulopenem]
16: Fold increase in MIC compared to vector control ([9]; E. coli expressing CMY-42 (class C), inhibitor fixed at 4 μg/ml) | Fold increase in MIC compared to vector control ([9]; E. coli expressing KPC-3 D179Y (class A), inhibitor fixed at 4 μg/ml) | Fold increase in MIC compared to vector control ([9]; E. coli expressing P99/AmpC (class C), inhibitor fixed at 4 μg/ml)
>32 µg/mL: MBC [6]
≥ 64 µg/mL: MIC90 ([8]; 25 isolates, BLI fixed at 4 μg/ml, AMC 2:1, listed as sulopenem) | MIC ([8]; E. cloacae 847426 (KPC)) | MIC ([8]; E. cloacae 847429 (KPC)) | MIC ([8]; E. cloacae OIMGH49 (p99 AmpC, ACT-2, KPC-2, TEM-1)) | MIC ([8]; E. coli 786978 (KPC)) | MIC ([8]; K. oxytoca 847537 (KPC)) | MIC ([8]; K. pneumoniae 155140 (AmpC, KPC-2, SHV-12, TEM-1)) | MIC ([8]; K. pneumoniae 845661 (KPC)) | MIC ([8]; K. pneumoniae 845662 (KPC)) | MIC ([8]; K. pneumoniae 845665 (KPC)) | MIC ([8]; K. pneumoniae 845667 (KPC)) | MIC ([8]; K. pneumoniae 847384 (KPC)) | MIC ([8]; K. pneumoniae 848832 (KPC)) | MIC ([13]; K. pneumoniae 664509 (OXA-48))
2 µg/mL: MIC90 [2, 14] | MIC ([2]; S. marcescens 132253 (AmpC, CTX-M-3, OXA-1, SHV-12, TEM-1)) | MIC ([2]; S. marcescens 142397 (AmpC, SHV-7, TEM-1)) | MIC ([13]; K. pneumoniae 515746 (OXA-48), first line) | MIC ([13]; K. pneumoniae DOV (OXA-48))
bactericidal activity: outcome of 24-h time-kill assay ([4]; Fig. 3a, CTB 2 μg/ml with BLI at 4 μg/ml, CTB alone 8 μg/ml, amoxicillin 8/clavulanic acid 4 μg/ml, penems 2 μg/ml)
64: Fold increase in MIC compared to vector control ([9]; E. coli expressing OXA-23 (class D), inhibitor fixed at 4 μg/ml)
1,024: Fold increase in MIC compared to vector control ([9]; E. coli expressing NDM-1 (class B), inhibitor fixed at 4 μg/ml) | Fold increase in MIC compared to vector control ([9]; E. coli expressing OXA-181 (class D), inhibitor fixed at 4 μg/ml)
8: Fold increase in MIC compared to vector control ([9]; E. coli expressing ACT-17 (class C), inhibitor fixed at 4 μg/ml) | Fold increase in MIC compared to vector control ([9]; E. coli expressing CMY-2 (class C), inhibitor fixed at 4 μg/ml) | Fold increase in MIC compared to vector control ([9]; E. coli expressing OXA-163 (class D), inhibitor fixed at 4 μg/ml) | Fold increase in MIC compared to vector control ([9]; E. coli expressing PER-1 (class A), inhibitor fixed at 4 μg/ml) | Fold increase in MIC compared to vector control ([9]; E. coli expressing SHV-5 (class A), inhibitor fixed at 4 μg/ml)
16 to 32 µg/mL: MIC90 ([13]; listed as sulopenem)
4: Fold increase in MIC compared to vector control ([9]; E. coli expressing CTX-M-15 (class A), inhibitor fixed at 4 μg/ml) | Fold increase in MIC compared to vector control ([9]; E. coli expressing SHV-12 (class A), inhibitor fixed at 4 μg/ml) | Fold increase in MIC compared to vector control ([9]; E. coli expressing VEB-9 (class A), inhibitor fixed at 4 μg/ml)
32 µg/mL: MBC [3] | MIC [7] | MIC50 [8, 14] | MIC ([8]; K. pneumoniae 847204 (KPC)) | MIC ([8]; K. pneumoniae 847375 (KPC)) | MIC ([8]; K. pneumoniae 847378 (KPC)) | MIC ([8]; K. pneumoniae 847383 (KPC)) | MIC ([8]; K. pneumoniae 847387 (KPC)) | MIC ([8]; K. pneumoniae 847747 (KPC)) | MIC ([8]; K. pneumoniae 848844 (KPC)) | MIC ([13]; K. pneumoniae DEL (OXA-232))
0.06 µg/mL: MIC ([2]; C. freundii 134390 (AmpC, TEM-1)) | MIC ([2]; E. aerogenes 110099 (AmpC, SHV-12)) | MIC ([2]; E. coli CH1 (AmpC, CTX-M-15, SHV-1, SHV-5, TEM-1)) | MIC ([2]; E. coli J53 (AmpC, SHV-5, TEM-1)) | MIC ([2]; K. pneumoniae 129032 (MOX-2, SHV-12, TEM-1)) | MIC ([2]; K. pneumoniae 178279 (AmpC, SHV-12, TEM-1)) | MIC ([2]; K. pneumoniae 217917 (CMY-2, TEM-1)) | MIC ([2]; K. pneumoniae 398845 (CMY-2, SHV-12, TEM-1))
4 µg/mL: MIC ([2]; S. marcescens 218068 (AmpC, SHV-7, TEM-1)) | MIC ([8]; K. oxytoca 847539 (KPC)) | MIC ([13]; E. coli 664523 (OXA-48)) | MIC ([13]; E. coli SI-422 (OXA-48)) | MIC ([13]; E. coli VER (OXA-48)) | MIC ([13]; K. pneumoniae 515746 (OXA-48), second line) | MIC ([13]; K. pneumoniae BAH (OXA-204)) | MIC ([13]; K. pneumoniae KIRK (OXA-162))
1 µg/mL: MIC [1] | MIC ([2]; P. mirabilis SI-F014 (AmpC, TEM-72)) | MIC ([2]; S. marcescens 156212 (AmpC, SHV-12, TEM-1)) | MBC [5] | MIC ([13]; K. pneumoniae 6299 (OXA-163))
256: Fold increase in MIC compared to vector control ([9]; E. coli expressing GES-5 (class A), inhibitor fixed at 4 μg/ml)
512: Fold increase in MIC compared to vector control ([9]; E. coli expressing OXA-48 (class D), inhibitor fixed at 4 μg/ml)
8 µg/mL: MIC ([2]; S. marcescens 134434 (AmpC, SHV-12, TEM-1)) | MIC ([8]; K. pneumoniae 847379 (KPC)) | MIC ([8]; K. pneumoniae 897067 (KPC)) | MIC50 [13] | MIC ([13]; E. coli 664507 (OXA-48)) | MIC ([13]; E. coli 664520 (OXA-48)) | MIC ([13]; E. coli 664524 (OXA-48)) | MIC ([13]; E. coli 664526 (OXA-48)) | MIC ([13]; E. coli 664528 (OXA-48)) | MIC ([13]; K. pneumoniae 664438 (OXA-48)) | MIC ([13]; K. pneumoniae 664439 (OXA-48)) | MIC ([13]; K. pneumoniae 664518 (OXA-48)) | MIC ([13]; K. pneumoniae 722870 (OXA-48))
0.03 µg/mL: MIC ([2]; E. coli 128 (AmpC, SHV-12, TEM-1, Toho-2)) | MIC ([2]; E. coli 3102 (AmpC, CTX-M-15, TEM-1)) | MIC ([2]; E. coli EC469 (AmpC, SHV-12, TEM-1)) | MIC ([2]; K. pneumoniae 212027 (AmpC, FOX-5, TEM-1)) | MIC ([2]; K. pneumoniae SI-F100 (CMY-2, SHV-5, TEM-1))
2: Fold increase in MIC compared to vector control [9]
0.12 µg/mL: MIC ([2]; E. aerogenes 111707 (AmpC, TEM-1)) | MIC ([2]; E. coli SI-PO26 (AmpC, CMY-2, TEM-1)) | MIC ([2]; K. pneumoniae 301313 (AmpC, SHV-12, TEM-1)) | MBC ([4]; lowest concentration with ≥3-log10 CFU/ml reduction at 24 h) | MIC50 [10] | MIC [11]
0.03 to 1 µg/mL: MIC range [10]
4 to 8 µg/mL: MIC50 ([13]; listed as sulopenem)
0.25 µg/mL: MIC ([2]; E. aerogenes 111902 (AmpC, TEM-1)) | MIC ([2]; E. coli SI-P026TC (CMY-2, TEM-1)) | MIC ([2]; S. marcescens 192478 (AmpC, SHV-12, TEM-1))
16 µg/mL: MIC ([8]; K. pneumoniae 845670 (KPC)) | MIC ([8]; K. pneumoniae 845904 (KPC)) | MIC ([8]; K. pneumoniae UMM (KPC-2, SHV-5, TEM-1)) | MIC [12] | MIC90 [13] | MIC ([13]; E. coli 664516 (OXA-48)) | MIC ([13]; E. coli 664522 (OXA-48)) | MIC ([13]; E. coli 664525 (OXA-48)) | MIC ([13]; E. coli 787112 (OXA-48)) | MIC ([13]; K. pneumoniae SI-C17 (OXA-48))
2,048: Fold increase in MIC compared to vector control ([9]; E. coli expressing KPC-2 (class A), inhibitor fixed at 4 μg/ml) | Fold increase in MIC compared to vector control ([9]; E. coli expressing KPC-3 (class A), inhibitor fixed at 4 μg/ml)
0.5 µg/mL: MIC90 [10]
